Results as given in publication PMC3662833 (Journal of molecular biology, 2011).

What was measured:
[1] = test system: Unmodified ASL^Lys3UUU; test: FITC-peptide fluorescence quenching titration with ASL; type: binding, human; details: in words; for interaction with unmodified ASL^Lys3UUU: FITC-peptide fluorescence quenching
[2] = in words
[3] = test system: E. coli ASL^Val3UAC; test: ESI-MS complex formation; type: binding; details: peptide in five-fold excess, preliminary, data not shown
[4] = Peptide structure by CD; type: physicochemical; details: in words
[5] = test system: unmodified hASL^Lys3UUU; test: ESI-MS complex formation; type: binding, human; details: preliminary, data not shown, in words
[6] = test system: ASL^Val3UAC-m^6A37; test: FITC-peptide fluorescence quenching titration with ASL; type: binding, E. coli; details: in words

AGPVPLHSLSYYYNQ [Peptide P31, reference compound]
RNA binding (control peptide) ([1]; control used as a baseline, ASL not specified, data not shown): non-RNA binding

HRGYCRDRWNCGEYF [Peptide P15]
solubility [2]: lacked the solubility required of the assay

PHRQCSAPAKSCKILP [Peptide P17]
interaction with unmodified ASL^Lys3UUU [1]: little to no interaction

RVTHHAFLGAHRTVG [Peptide P6]
RNA in complex with P6 [3]: 50%
structure as determined by CD [4]: lack of structure
interaction with unmodified ASL^Lys3UUU [1]: little to no interaction
RNA bound by P6 [5]: small amounts
binding of ASL^Val3UAC-m^6A37 [6]: did not bind
